The values that follow come from patent US9777003B2, “Tricyclic heterocycles as bet protein inhibitors” (Incyte Corporation, priority 2013, dated 2017).

Structures can show the parent of a compound that is named as a salt.

The target of one test is BRD4-BD2 (Homo sapiens (Human), UniProt O60885). The experiment in a line: BRD4 AlphaScreen assay, BRD4-BD2. The format is binding. The settings on record: biotin-labeled tetra-acetylated histone H4 peptide, 75 min, room temperature, read-out: BRD4 BD-2 enzyme IC50. An outline of the steps: (§1)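 IC50 values from percent-control versus log inhibitor fits after bead-based proximity readout (streptavidin donor, GSH acceptor, 75 min dark). Reactions: 75 min RT, pH 7.4 HEPES, biotin-H4Ac4 peptide 50 nM, with BD1 at 3.8 nM (DMSO 1.25%) and BD2 at 20 nM (DMSO 0.83%).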

In another test the target is BRD4-BD1 (Homo sapiens (Human), UniProt O60885). Briefly: BRD4 AlphaScreen assay, BRD4-BD1. The format is binding. The settings on record: biotin-labeled tetra-acetylated histone H4 peptide, 75 min, room temperature, read-out: BRD4 BD-1 enzyme IC50. An outline of the steps:
as §1

For the molecule `CC(=O)N1CC(CC#N)(n2ccc(-c3cc4c(ccc5nnc(C)n54)n3Cc3cccc(Cl)c3)n2)C1` [Example 106, (1-acetyl-3-{3-[6-(3-chlorobenzyl)-1-methyl-6H-pyrrolo[2,3-e][1,2,4]triazolo[4,3-a]pyridin-7-yl]-1H-pyrazol-1-yl}azetidin-3-yl)acetonitrile], the IC50 on BRD4-BD2 and at BRD4-BD1 was not above 100 nM throughout.

Take `Cc1nnc2ccc3c(cc(-c4ccn(C5(CC#N)CN(S(C)(=O)=O)C5)n4)n3Cc3cccc(Cl)c3)n12` [Example 107, [3-{3-[6-(3-chlorobenzyl)-1-methyl-6H-pyrrolo[2,3-e][1,2,4]triazolo[4,3-a]pyridin-7-yl]-1H-pyrazol-1-yl}-1-(methylsulfonyl)azetidin-3-yl]acetonitrile]: the IC50 on BRD4-BD2 and at BRD4-BD1 was not above 100 nM throughout.

For `CC(=O)N1CC(n2ccc(-c3cc4c(ccc5nnc(C)n54)n3Cc3cccc(Cl)c3)n2)C1` [Example 108, 7-[1-(1-acetylazetidin-3-yl)-1H-pyrazol-3-yl]-6-(3-chlorobenzyl)-1-methyl-6H-pyrrolo[2,3-e][1,2,4]triazolo[4,3-a]pyridine], the 50% inhibitory concentration (IC50) on BRD4-BD2 and at BRD4-BD1 was not above 100 nM in each case.

As to `Cc1nnc2ccc3c(cnn3Cc3ccccc3)n12` [Example 112, 6-benzyl-1-methyl-6H-pyrazolo[3,4-e][1,2,4]triazolo[4,3-a]pyridine], the half-maximal inhibitory concentration (IC50) on BRD4-BD2 and on BRD4-BD1 was 100 to 1000 nM throughout.

For `CCNC(=O)c1cc2c(ccc3nnc(C)n32)n1Cc1cccc(Cl)c1` [Example 113, 6-(3-Chlorobenzyl)-N-ethyl-1-methyl-6H-pyrrolo[2,3-e][1,2,4]triazolo[4,3-a]pyridine-7-carboxamide Trifluoroacetate Salt], the 50% inhibitory concentration (IC50) at BRD4-BD2 and on BRD4-BD1 was not above 100 nM in each case.

Take `Cc1nnc2ccc3c(cc(C(=O)NCC4CC4)n3Cc3cccc(Cl)c3)n12` [Example 114, 6-(3-Chlorobenzyl)-N-(cyclopropylmethyl)-1-methyl-6H-pyrrolo[2,3-e][1,2,4]triazolo[4,3-a]pyridine-7-carboxamide Trifluoroacetate Salt]: the IC50 on BRD4-BD2 and at BRD4-BD1 was not above 100 nM in each case.

Take `Cc1nnc2ccc3c(cc(C(=O)NCCN(C)C)n3Cc3cccc(Cl)c3)n12` [Example 115, 6-(3-Chlorobenzyl)-N-[2-(dimethylamino)ethyl]-1-methyl-6H-pyrrolo[2,3-e][1,2,4]triazolo[4,3-a]pyridine-7-carboxamide bis(trifluoroacetate) Salt]: the 50% inhibitory concentration (IC50) at BRD4-BD2 and at BRD4-BD1 was 100 to 1000 nM each time.

On to `Cc1nnc2ccc3c(cc(C(=O)N4CCOCC4)n3Cc3cccc(Cl)c3)n12` [Example 116, 6-(3-Chlorobenzyl)-1-methyl-7-(morpholin-4-ylcarbonyl)-6H-pyrrolo[2,3-e][1,2,4]triazolo[4,3-a]pyridine Trifluoroacetate Salt], for which the IC50 at BRD4-BD2 and at BRD4-BD1 was 1000 to 10000 nM in each case.

For `Cc1nnc2ccc3c(cc(C(=O)NCCO)n3Cc3cccc(Cl)c3)n12` [Example 117, 6-(3-Chlorobenzyl)-N-(2-hydroxyethyl)-1-methyl-6H-pyrrolo[2,3-e][1,2,4]triazolo[4,3-a]pyridine-7-carboxamide Trifluoroacetate Salt], the IC50 on BRD4-BD2 and on BRD4-BD1 was not above 100 nM each time.

Turning to `Cc1nnc2ccc3c(cc(C(=O)NC4CN(C)C4)n3Cc3cccc(Cl)c3)n12` [Example 118, 6-(3-Chlorobenzyl)-1-methyl-N-(1-methylazetidin-3-yl)-6H-pyrrolo[2,3-e][1,2,4]triazolo[4,3-a]pyridine-7-carboxamide bis(trifluoroacetate) Salt], the IC50 on BRD4-BD2 and on BRD4-BD1 was 100 to 1000 nM throughout.

For the molecule `Cc1nnc2ccc3c(cc(C(=O)NCCN4CCOCC4)n3Cc3cccc(Cl)c3)n12` [Example 119, 6-(3-Chlorobenzyl)-1-methyl-N-(2-morpholin-4-ylethyl)-6H-pyrrolo[2,3-e][1,2,4]triazolo[4,3-a]pyridine-7-carboxamide Trifluoroacetate Salt], the IC50 at BRD4-BD2 and on BRD4-BD1 was not above 100 nM in each case.

`Cc1nnc2ccc3c(cc(C(=O)NC(C)(C)C)n3Cc3cccc(Cl)c3)n12` [Example 120, N-(tert-Butyl)-6-(3-chlorobenzyl)-1-methyl-6H-pyrrolo[2,3-e][1,2,4]triazolo[4,3-a]pyridine-7-carboxamide Trifluoroacetate Salt]: the 50% inhibitory concentration (IC50) at BRD4-BD2 and on BRD4-BD1 was 100 to 1000 nM in each case.

Regarding `CCNC(=O)c1cc2c(ccc3nnc(C)n32)n1Cc1cccc(CN2CCC2)c1` [Example 121, 6-[3-(Azetidin-1-ylmethyl)benzyl]-N-ethyl-1-methyl-6H-pyrrolo[2,3-e][1,2,4]triazolo[4,3-a]pyridine-7-carboxamide bis(trifluoroacetate) Salt], the IC50 on BRD4-BD2 and at BRD4-BD1 was not above 100 nM throughout.

As for `CNC(=O)c1cc2c(ccc3nnc(C)n32)n1Cc1cccc(CN2CCC2)c1` [Example 122, 6-[3-(Azetidin-1-ylmethyl)benzyl]-N,1-dimethyl-6H-pyrrolo[2,3-e][1,2,4]triazolo[4,3-a]pyridine-7-carboxamide bis(trifluoroacetate) Salt], the 50% inhibitory concentration (IC50) at BRD4-BD2 and on BRD4-BD1 was not above 100 nM throughout.

`Cc1nnc2ccc3c(cc(C(=O)NCCCO)n3Cc3ccccc3)n12` [Example 123, 6-Benzyl-N-(3-hydroxypropyl)-1-methyl-6H-pyrrolo[2,3-e][1,2,4]triazolo[4,3-a]pyridine-7-carboxamide Trifluoroacetate Salt]: the IC50 on BRD4-BD2 is not above 100 nM; on BRD4-BD1, 100 to 1000 nM.

Turning to `Cc1nnc2ccc3c(cc(C(=O)NCC4CNC4)n3Cc3ccccc3)n12` [Example 124, N-(Azetidin-3-ylmethyl)-6-benzyl-1-methyl-6H-pyrrolo[2,3-e][1,2,4]triazolo[4,3-a]pyridine-7-carboxamide bis(trifluoroacetate) Salt], the IC50 on BRD4-BD2 and at BRD4-BD1 was 1000 to 10000 nM throughout.

For `Cc1nnc2ccc3c(cc(C(=O)NCC(C)C)n3Cc3ccccc3)n12` [Example 125, 6-Benzyl-N-isobutyl-1-methyl-6H-pyrrolo[2,3-e][1,2,4]triazolo[4,3-a]pyridine-7-carboxamide Trifluoroacetate], the concentration for half-maximal inhibition (IC50) on BRD4-BD2 and on BRD4-BD1 was 100 to 1000 nM in each case.

Turning to `Cc1nnc2ccc3c(cc(C(=O)NCc4ccncc4)n3Cc3ccccc3)n12` [Example 126, 6-Benzyl-1-methyl-N-(pyridin-4-ylmethyl)-6H-pyrrolo[2,3-e][1,2,4]triazolo[4,3-a]pyridine-7-carboxamide bis(trifluoroacetate) Salt], the IC50 on BRD4-BD2 and at BRD4-BD1 was 100 to 1000 nM in each case.

Consider `Cc1nnc2ccc3c(cc(C(=O)NCCCO)n3Cc3cccc(Cl)c3)n12` [Example 127, 6-(3-Chlorobenzyl)-N-(3-hydroxypropyl)-1-methyl-6H-pyrrolo[2,3-e][1,2,4]triazolo[4,3-a]pyridine-7-carboxamide Trifluoroacetate Salt], for which the half-inhibitory concentration (IC50) on BRD4-BD2 and on BRD4-BD1 was not above 100 nM throughout.

On to `Cc1nnc2ccc3c(cc(C(=O)NCC4CNC4)n3Cc3cccc(Cl)c3)n12` [Example 128, N-(Azetidin-3-ylmethyl)-6-(3-chlorobenzyl)-1-methyl-6H-pyrrolo[2,3-e][1,2,4]triazolo[4,3-a]pyridine-7-carboxamide bis(trifluoroacetate) Salt], for which the concentration for half-maximal inhibition (IC50) at BRD4-BD2 and at BRD4-BD1 was 100 to 1000 nM each time.

Regarding `Cc1nnc2ccc3c(cc(C(=O)NCC(C)C)n3Cc3cccc(Cl)c3)n12` [Example 129, 6-(3-Chlorobenzyl)-N-isobutyl-1-methyl-6H-pyrrolo[2,3-e][1,2,4]triazolo[4,3-a]pyridine-7-carboxamide Trifluoroacetate Salt], the IC50 at BRD4-BD2 and on BRD4-BD1 was not above 100 nM each time.

With `CNC(=O)c1cc2c(ccc3nnc(C)n32)n1Cc1cc(Cl)cc(CN2CCC2)c1` [Example 131, 6-[3-(Azetidin-1-ylmethyl)-5-chlorobenzyl]-N,1-dimethyl-6H-pyrrolo[2,3-e][1,2,4]triazolo[4,3-a]pyridine-7-carboxamide bis(trifluoroacetate) Salt], the IC50 at BRD4-BD2 and at BRD4-BD1 was not above 100 nM throughout.

For the molecule `CCNC(=O)c1cc2c(ccc3nnc(C)n32)n1Cc1cc(Cl)cc(CN2CCCC2)c1` [Example 133, 6-[3-Chloro-5-(pyrrolidin-1-ylmethyl)benzyl]-N-ethyl-1-methyl-6H-pyrrolo[2,3-e][1,2,4]triazolo[4,3-a]pyridine-7-carboxamide bis(trifluoroacetate) Salt], the IC50 at BRD4-BD2 and at BRD4-BD1 was not above 100 nM in each case.

Regarding `CNC(=O)c1cc2c(ccc3nnc(C)n32)n1Cc1cc(Cl)cc(CN2CCC(F)(F)C2)c1` [Example 134, 6-{3-Chloro-5-[(3,3-difluoropyrrolidin-1-yl)methyl]benzyl}-N,1-dimethyl-6H-pyrrolo[2,3-e][1,2,4]triazolo[4,3-a]pyridine-7-carboxamide 2.4×(trifluoroacetate) Salt], the half-inhibitory concentration (IC50) on BRD4-BD2 and on BRD4-BD1 was not above 100 nM each time.

For the molecule `CNC(=O)c1cc2c(ccc3nnc(C)n32)n1Cc1cc(Cl)cc(CN2CC(C)(C)C2)c1` [Example 135, 6-{3-Chloro-5-[(3,3-dimethylazetidin-1-yl)methyl]benzyl}-N,1-dimethyl-6H-pyrrolo[2,3-e][1,2,4]triazolo[4,3-a]pyridine-7-carboxamide bis(trifluoroacetate) Salt], the concentration for half-maximal inhibition (IC50) on BRD4-BD2 and on BRD4-BD1 was not above 100 nM throughout.

As to `CNC(=O)c1cc2c(ccc3nnc(C)n32)n1Cc1cccc(C(F)(F)F)c1` [Example 136, N,1-dimethyl-6-[3-(trifluoromethyl)benzyl]-6H-pyrrolo[2,3-e][1,2,4]triazolo[4,3-a]pyridine-7-carboxamide Trifluoroacetate Salt], the half-inhibitory concentration (IC50) on BRD4-BD2 and on BRD4-BD1 was not above 100 nM each time.
